Test results from ChEMBL document CHEMBL5029162, “4-Pyridone-3-carboxylic acid as a benzoic acid bioisostere: Design, synthesis, and evaluation of EP300/CBP histone acetyltransferase inhibitors” (Bioorg Med Chem Lett, 2021).

How the values were obtained:
[1] = biological target: Histone acetyltransferase KAT6B (Homo sapiens, UniProt Q8WYB5); assay: Inhibition of MYST4 (unknown origin)
[2] = biological target: CREB-binding protein (Homo sapiens, UniProt Q92793); assay: Inhibition of CBP (unknown origin)
Sequence of CREB-binding protein (Q92793 whole entry): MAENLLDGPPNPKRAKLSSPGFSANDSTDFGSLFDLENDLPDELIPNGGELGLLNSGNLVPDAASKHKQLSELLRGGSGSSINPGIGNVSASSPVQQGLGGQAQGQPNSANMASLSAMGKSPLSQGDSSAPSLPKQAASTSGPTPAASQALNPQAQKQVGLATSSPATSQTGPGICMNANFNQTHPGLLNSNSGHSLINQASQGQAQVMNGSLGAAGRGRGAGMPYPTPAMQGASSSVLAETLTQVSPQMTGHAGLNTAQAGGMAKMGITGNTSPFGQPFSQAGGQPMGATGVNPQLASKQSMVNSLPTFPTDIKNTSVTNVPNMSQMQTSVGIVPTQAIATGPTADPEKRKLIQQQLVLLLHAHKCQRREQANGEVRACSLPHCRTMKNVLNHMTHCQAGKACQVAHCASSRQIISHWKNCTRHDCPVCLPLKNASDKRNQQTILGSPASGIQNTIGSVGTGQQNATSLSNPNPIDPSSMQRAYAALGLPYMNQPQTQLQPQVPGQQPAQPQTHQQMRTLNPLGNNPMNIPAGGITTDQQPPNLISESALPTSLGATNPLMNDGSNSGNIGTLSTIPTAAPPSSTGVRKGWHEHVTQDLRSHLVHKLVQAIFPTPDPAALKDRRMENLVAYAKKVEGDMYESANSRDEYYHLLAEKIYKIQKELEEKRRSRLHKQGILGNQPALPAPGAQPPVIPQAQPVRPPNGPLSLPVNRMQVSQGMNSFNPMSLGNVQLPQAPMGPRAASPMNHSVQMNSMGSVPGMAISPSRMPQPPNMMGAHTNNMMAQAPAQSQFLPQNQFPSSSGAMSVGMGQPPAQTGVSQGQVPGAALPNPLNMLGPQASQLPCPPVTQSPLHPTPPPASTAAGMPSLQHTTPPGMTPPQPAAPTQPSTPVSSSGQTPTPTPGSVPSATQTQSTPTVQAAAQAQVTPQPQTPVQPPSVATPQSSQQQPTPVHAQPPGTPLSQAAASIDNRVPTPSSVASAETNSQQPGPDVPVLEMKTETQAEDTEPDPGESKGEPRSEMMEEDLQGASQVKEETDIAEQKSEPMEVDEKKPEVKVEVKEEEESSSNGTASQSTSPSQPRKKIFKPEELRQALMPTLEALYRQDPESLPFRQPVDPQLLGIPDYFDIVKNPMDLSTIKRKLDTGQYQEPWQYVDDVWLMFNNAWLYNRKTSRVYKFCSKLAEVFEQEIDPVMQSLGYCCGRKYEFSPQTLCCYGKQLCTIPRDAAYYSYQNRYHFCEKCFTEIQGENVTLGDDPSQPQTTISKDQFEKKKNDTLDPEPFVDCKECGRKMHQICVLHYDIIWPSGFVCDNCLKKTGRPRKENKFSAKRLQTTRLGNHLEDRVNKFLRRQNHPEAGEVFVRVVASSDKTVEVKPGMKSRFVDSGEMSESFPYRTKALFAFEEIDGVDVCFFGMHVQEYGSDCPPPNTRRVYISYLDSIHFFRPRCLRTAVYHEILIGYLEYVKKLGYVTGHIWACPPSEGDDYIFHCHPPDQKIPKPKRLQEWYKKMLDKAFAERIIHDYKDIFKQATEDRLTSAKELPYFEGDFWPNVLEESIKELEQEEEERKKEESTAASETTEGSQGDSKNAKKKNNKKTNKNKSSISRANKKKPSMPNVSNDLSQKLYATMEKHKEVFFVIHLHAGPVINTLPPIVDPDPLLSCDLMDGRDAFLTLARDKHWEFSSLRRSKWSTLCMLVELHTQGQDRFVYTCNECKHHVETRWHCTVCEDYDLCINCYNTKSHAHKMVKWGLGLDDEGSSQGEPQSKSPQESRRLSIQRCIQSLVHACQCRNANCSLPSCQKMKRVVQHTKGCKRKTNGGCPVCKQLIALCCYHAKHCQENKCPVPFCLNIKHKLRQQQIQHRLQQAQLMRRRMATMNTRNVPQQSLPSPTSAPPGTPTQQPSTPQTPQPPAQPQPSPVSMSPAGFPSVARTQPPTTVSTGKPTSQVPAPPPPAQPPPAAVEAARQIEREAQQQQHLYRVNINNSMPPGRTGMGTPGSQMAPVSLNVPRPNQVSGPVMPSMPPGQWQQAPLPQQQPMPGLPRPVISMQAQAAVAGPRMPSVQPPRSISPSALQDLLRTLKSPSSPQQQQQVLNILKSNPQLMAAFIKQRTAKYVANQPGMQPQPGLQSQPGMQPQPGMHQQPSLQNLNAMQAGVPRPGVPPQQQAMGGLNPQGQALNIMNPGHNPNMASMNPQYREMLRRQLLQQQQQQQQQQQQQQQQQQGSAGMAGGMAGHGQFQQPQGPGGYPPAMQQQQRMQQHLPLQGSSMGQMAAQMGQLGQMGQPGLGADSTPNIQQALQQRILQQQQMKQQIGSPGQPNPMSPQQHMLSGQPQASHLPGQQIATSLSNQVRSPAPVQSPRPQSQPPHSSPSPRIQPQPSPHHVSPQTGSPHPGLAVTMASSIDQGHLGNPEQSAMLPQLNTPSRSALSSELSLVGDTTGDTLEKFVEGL

[3] = biological target: Histone acetyltransferase KAT2A (Homo sapiens, UniProt Q92830); assay: Inhibition of GCN5 (unknown origin)
Sequence of Histone acetyltransferase KAT2A (Q92830 whole entry): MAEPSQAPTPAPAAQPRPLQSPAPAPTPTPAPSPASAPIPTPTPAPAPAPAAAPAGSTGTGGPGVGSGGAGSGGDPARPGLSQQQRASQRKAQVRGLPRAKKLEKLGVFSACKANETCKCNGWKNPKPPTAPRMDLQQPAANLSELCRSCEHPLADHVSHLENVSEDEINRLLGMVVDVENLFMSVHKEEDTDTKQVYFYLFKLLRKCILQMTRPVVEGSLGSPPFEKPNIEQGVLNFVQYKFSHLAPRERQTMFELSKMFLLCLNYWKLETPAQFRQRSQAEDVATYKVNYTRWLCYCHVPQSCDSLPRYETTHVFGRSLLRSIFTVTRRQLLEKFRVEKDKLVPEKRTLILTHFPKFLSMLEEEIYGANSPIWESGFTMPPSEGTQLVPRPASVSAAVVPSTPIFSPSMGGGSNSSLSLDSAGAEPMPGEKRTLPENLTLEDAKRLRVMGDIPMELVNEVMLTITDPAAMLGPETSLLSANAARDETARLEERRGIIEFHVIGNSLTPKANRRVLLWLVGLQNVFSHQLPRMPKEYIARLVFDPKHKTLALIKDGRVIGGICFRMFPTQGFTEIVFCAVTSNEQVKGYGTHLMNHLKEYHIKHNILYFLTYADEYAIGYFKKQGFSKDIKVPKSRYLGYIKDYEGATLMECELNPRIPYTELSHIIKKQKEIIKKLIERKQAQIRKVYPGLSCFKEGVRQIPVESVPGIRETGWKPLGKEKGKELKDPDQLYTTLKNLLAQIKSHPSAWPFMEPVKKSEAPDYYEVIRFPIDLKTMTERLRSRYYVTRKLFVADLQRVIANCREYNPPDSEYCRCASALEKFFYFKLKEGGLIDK

Compound COC1=C(Cc2ccc(-c3cn(C)cc(C(=O)O)c3=O)s2)C(=O)N(c2ccc3ccccc3c2)C1 has an IC50 [1] greater than 50 µM, an IC50 [2] of 3.4 µM and an IC50 [3] greater than 50 µM.
For COC1=C(Cc2ccc(-c3cn(Cc4ccccc4)cc(C(=O)O)c3=O)s2)C(=O)N(c2ccc3ccccc3c2)C1, the IC50 [1] was greater than 50 µM, the IC50 [2] was 1.3 µM and the IC50 [3] was greater than 50 µM.
